# Assay results published in patent US8338482B2, “Modulating notch1 signaling pathway for treating neuroendocrine tumors” (Wisconsin Alumni Research Foundation, priority 2007, dated 2012).
# Experiments:
# [1] = Serum VPA level in xenograft mice; assay type: in vivo; settings: nude athymic NU/NU, mouse, ip, two hours after i.p. injection, last day, 366 mg/kg, read-out: median serum VPA level
# Protocol: After confirming that VPA activates Notch1 signaling and suppresses carcinoid cell growth in vitro, we were interested in testing its efficacy in vivo. Subcutaneous human GI carcinoid tumors were developed in immunocompromised mice, which were then given daily intraperitoneal injections of VPA, and the tumors were measured every 4 days for 20 days. The tumors of the saline-treated control mice grew at a higher rate than did those of the VPA-treated animals (FIG. 28A). Indeed, the growth of the tumors in the treatment group was almost static. On the last day of the experiment, blood was drawn from each animal in the treatment group two hours after intraperitoneal injection of VPA.
# [2] = tested on: BON human GI carcinoid cancer cells; assay: MTT cell proliferation assay, GI carcinoid cells; assay type: cell-based
# From the text: (§1) Cell Culture BON human GI carcinoid cancer cells, kindly provided by Drs. B. Mark Evers and Courtney M. Townsend, Jr. (University of Texas Medical Branch, Galveston, Tex., USA), and H727 human lung carcinoid cancer cells (American Type Tissue Collection, Manassas, Va., USA) were maintained as previously described (Sippel, R S et al., Raf-1 Activation Suppresses neuroendocrine marker and hormone levels in human gastrointestinal carcinoid cells. Am J Physiol Gastrointest Liver Physiol. 2003 August; 285(2):G245-54, Van Gompel J J et al., ZM336372, A Raf-1 Activator, Suppresses Growth and Neuroendocrine Hormone Levels in Carcinoid Tumor Cells. Mol Cancer Ther. 2005 June; 4(6):910-7)
# (§2) Cell Proliferation Assay Carcinoid cancer cell proliferation was measured by the MTT (thiazolyl blue tetrazolium bromide; Sigma-Aldrich, St. Louis, Mo., USA) rapid calorimetric assay as previously described (Van Gompel J J et al., ZM336372, A Raf-1 Activator, Suppresses Growth and Neuroendocrine Hormone Levels in Carcinoid Tumor Cells. Mol Cancer Ther. 2005 June; 4(6):910-7). Briefly, cells were seeded in quadruplicate on 24-well plates and incubated for 24 hours to allow cell attachment. The cells were then treated with SBHA (Sigma-Aldrich) in concentrations of 0 to 50 μM and incubated for up to 6 days. The MTT assay was performed by replacing the standard medium with 250 μL of serum-free medium containing MTT (0.5 mg/mL) and incubated at 37° C. for 3 hours. After incubation, 750 μL of dimethyl sulfoxide (Sigma-Aldrich) was added to each well and mixed thoroughly. The plates were then measured at 540 nm using a spectrophotometer (μQuant; Bio-Tek Instruments, Winooski, Vt., USA).
# Cell Culture BON human gastrointestinal (GI) carcinoid tumor cells, kindly provided by Drs. B. Mark Evers and Courtney M. Townsend, Jr. […]
# (§3) Cell Proliferation Assay Carcinoid tumor cell proliferation was measured by the MTT (methylthiazolyldiphenyl-tetrazolium bromide; Sigma-Aldrich, St. Louis, Mo.) rapid colorimetric assay as previously described (Van Gompel J J et al., ZM336372, A Raf-1 Activator, Suppresses Growth and Neuroendocrine Hormone Levels in Carcinoid Tumor Cells. Mol Cancer Ther 2005; 4:910-917). […] The plates were then measured at 540 nm using a spectrophotometer (μQuant; Bio-Tek Instruments, Winooski, Vt.).
# [3] = tested on: H727 human lung carcinoid cancer cells; assay: MTT cell proliferation assay, pulmonary carcinoid cells; assay type: cell-based; settings: VPA 0 to 4 mM, up to 6 days
# From the text: as §1
# as §2, with “After incubation, 750 μL of dimethyl sulfoxide (Sigma-Aldrich) was added to each well and mixed thoroughly.” left out, “USA). […]” for “USA).”
# as §3
# [4] = tested on: BON cells; assay: Subcutaneous GI carcinoid xenograft study; assay type: in vivo, mice; settings: 366 mg/kg daily i.p., 20 days
# Protocol: Xenograft Studies BON cells (1×10^6) were suspended in Hanks' balanced salt solution (Invitrogen) and injected subcutaneously into the right flank of 12 male nude athymic NU/NU mice (Charles River Laboratories, Wilmington, Mass.) under anesthesia. After palpable tumors developed, the mice were divided into 2 groups of 6 animals. The control group received daily intraperitoneal (i.p.) injections of saline while the treatment group received daily i.p. injections of VPA (366 mg/kg) for 20 days. The length and width of tumors were measured with a vernier caliper every 4 days and tumor volumes were calculated using the formula, volume=width^2×length×0.52. At the end of the experiment the mice were sacrificed and the tumors were resected and frozen in liquid nitrogen. Whole tumor cell protein lysates were prepared for immunoblotting as previously described (Vaccaro A et al., In-vivo activation of Raf-1 inhibits tumor growth and development in a xenograft model of human medullary thyroid cancer. Anticancer Drugs 2006; 17:849-853). This experiment was performed in accordance with the protocols of the University of Wisconsin Medical School Animal Care and Use Committee.
# [5] = tested on: neuroblastoma (NB) cells; settings: cited from earlier work
smiles,measurement,setting,value
"CCCC(CCC)C(=O)O [VPA, 2-propylpentanoic acid]",concentration at 2 h,[1],46000 ng/mL
same,inhibition at 1000 µM,"[2]; Homo sapiens, 144 h, 1 mM, 6 days of treatment, read-out: growth inhibition relative to untreated cells",50%
same,cell growth,"[2]; VPA 0 to 4 mM, up to 6 days",profound dose-dependent inhibition of growth
same,cell growth,[3],Statistically significant growth inhibition
same,growth of the tumors,[4],almost static
same,neurotoxicity,[4],no signs of neurotoxicity
same,expression of ASCL1 in resected tumors,[4]; Western blot,decreased expression
same,cell death,[5],increased cell death
same,levels of intracellular Notch-1 and Hes-1,[5],increased levels
